According to patent US20140255432A1, “SILVESTROL, SILVESTROL ANALOGS AND USES THEREOF” (priority 2011, published 2014):

How the values were obtained:
LMP-1 = assay: Immunoblot of LMP-1 in LCL; format: cell-based, Epstein-Barr virus
Experimental: (§1) Cells were harvested and lysed as described (Alinari 2011). Following collection of whole cell lysates, equal amounts of protein were resolved by SDS-PAGE and transferred onto a PVDF membrane (Millipore, Billerica, Mass.). Membrane was probed overnight at 4° C. with β-actin, pSTAT1, pSTAT3, STAT1, STAT3, pAkt, Akt (Cell Signaling Technology, Danvers, Mass.), or LMP-1 (DakoCytomation, Carpinteria, Calif.). After incubation with HRP-conjugated secondary antibody (Cell Signaling Technology), protein was detected with SuperSignal West Pico Chemiluminescent Substrate (Pierce, Rockford, Ill.).
Whole cell protein levels of LMP-1 was evaluated by immunoblot 72 hr after treating with a single dose (10 nM) of silvestrol in seven LCL lines (FIG. 3A). β-actin was included as a loading control. In FIG. 3B, LCL were incubated 24, 72, and 120 hr in the presence of 10 nM silvestrol or vehicle control. Whole cell lysates were immunoblotted for LMP-1. Results are representative of 3 LCL lines. […] Decreases in other latent gene products involved with EBV-driven B cell transformation were observed as well. In FIG. 3D, LCL were incubated as in FIG. 3B and immunoblotted for STAT1, STAT3, AKT and NF-κB p65.

[1] = test system: EBV-positive lymphoblastoid cell lines (LCL); assay: MTS proliferation assay; format: cell-based, human
Experimental: MTS proliferation assays were performed according the CellTiter 96™ Aqueous Cell Proliferation Assay Technical Bulletin (Promega, Madison, Wis.). 5×10^4 cells were plated in each well of a 96-well plate at 37° C. and assayed for proliferation at 24, 72, and 120 hr.
The direct anti-tumor activity of silvestrol in leukemia and lymphoma models has been document (Hwang 2004; Bordeleau 2008; Cencic 2009; Lucas 2009 Alinari 2011; Saradhi 2011) as well as silvestrol's increased cytotoxicity to malignant B cells compared to normal blood lymphocytes (Lucas 2009). However, activity of silvestrol has not previously been described in spontaneous EBV-transformed cell lines. Silvestrol's activity in fully transformed EBV-positive LCL derived from tumors of SCID mice engrafted with PBMC from EBV-seropositive donors was observed. Six of these EBV-LCL lines were plated in the presence of low concentrations of silvestrol (2-50 nM), and apoptosis (viability assessed by annexin/PI flow cytometry) (FIG. 2A) and proliferation (MTS assay) (FIG. 2B) were evaluated at 24, 72, and 120 hr. Cells were plated at a sufficiently low density so that even after five days there was minimal loss of viability due to nutrient depletion in the untreated control. In FIG. 2A, data are shown as percent annexin-negative and PI-negative cells relative to the time-matched vehicle control. Bars show −/+ standard deviation. […]

[2] = test system: STAT1, STAT3, AKT and NF-κB p65; assay: Immunoblot of LMP-1 downstream pathways in LCL; format: cell-based, human
Experimental: as §1
Through its cytoplasmic C-terminal-activating region 1 (CTAR1), LMP-1 constitutively activates multiple pro-survival signaling pathways including NF-κB, PI3K/AKT, and STATs 1 and 3 (Shair 2007; Gires 1999; Dawson 2003; Kung 2008; Kung 2011) similar to an external growth stimulus. Thus, LMP-1 directly and indirectly promotes tumor cell growth and survival through diverse mechanisms. To investigate the effects of silvestrol on these pathways, LCLs were incubated for 24, 72, and 120 hr with vehicle or 10 nM silvestrol, and cell extracts were analyzed by immunoblot. […] Using the same treatment conditions, a decrease in the levels of both total Akt and its activated, phosphorylated form was observed. […] Total levels of NF-κB proteins such as p50, p105, and IKBa were unchanged (left panel), as were Bcl2 family proteins such as Bcl2, Mel1, and Bax (right panel) (FIG. 36).

K562 cells = assay: NK cytotoxicity of K562 cells; format: cell-based; conditions: 10 nM (FIG. 41)
Source text: (§2) FIG. 41 presents data regarding NK cytotoxicity of K562 cells. […] FIG. 42 presents data regarding the cytotoxicity of LCLs pretreated with BZLF 1. […] BZLF1 antigen pulsed LCLs promoted enhanced killing in untreated and silvestrol-treated CTLs. FIG. 43 presents data relating to CD4 IFNgamma release with LCL pretreated with BZLF1. […] FIG. 44 presents data relating to CD4 IFNgamma release with LCL pretreated with BZLF 1. […] FIG. 45 presents data relating to interleukin-6 induction by silvestrol. […] FIG. 46 presents data relating to a change in LMP-1 expression following silvestrol treatment. […] Three cell lines were examined on days 1, 3, and 5 following treatment. FIG. 47 presents data relating to a change in EBNA1 expression following silvestrol treatment. Three cell lines were examined on days 1, 3, and 5 following treatment.

IFNgamma = IFNgamma release / production of immune effector cells; format: cell-based, human
Experimental: CoCx were incubated in the presence of 10 U/ml IL-2 and given a single dose of 0 (vehicle only), 2, 5, or 10 nM silvestrol. At day 14 cells were (A) stimulated non-specifically by addition of 12-O-tetradecanoylphorbol-13-acetate (TPA) and ionomycin (INO) to assay for the ability to release interferon gamma (IFNγ) or (B) by the addition of equal numbers autologous LCL to measure cell mediated response to antigen-induced IFNγ production. IFNγ production was measured by […] flow following four hour stimulation.
as §2

[3] = Pharmacokinetics work in mice; format: in vivo

COC(=O)[C@H]1[C@@H](O)[C@@]2(O)c3c(OC)cc(O[C@@H]4O[C@@H]([C@H](O)CO)CO[C@H]4OC)cc3O[C@@]2(c2ccc(OC)cc2)[C@@H]1c1ccccc1 [silvestrol]
LMP1 protein levels (LMP-1; 10 nM, 5 days, cells from seven donors (FIG. 3A)): reduced LMP1 protein levels | LMP-1 levels over time (LMP-1; single 10 nM dose, 24, 72, 120 hr (FIG. 3B)): fall incrementally as a function of time | growth inhibition vs. untreated control ([1]; 2-50 nM, 24, 72, 120 hr, p<0.0001 averaged over doses and time points): Moderate but significant activity | IC50 ([1]; Homo sapiens, Lymphoblastoid cell, six EBV-LCL lines, 72 hr, estimated, read-out: 50% growth inhibitory concentration (IC50)): ~40 nM | phosphorylated (activated) STAT1 level ([2]; 10 nM, 24, 72, 120 hr): decreased | phosphorylated (activated) STAT3 level ([2]; 10 nM, 24, 72, 120 hr): decreased | phosphorylated Akt level ([2]; 10 nM, 24, 72, 120 hr): a decrease | total Akt level ([2]; 10 nM, 24, 72, 120 hr): a decrease | total STAT1 level ([2]; 10 nM, 24, 72, 120 hr): remained unchanged | total STAT3 level ([2]; 10 nM, 24, 72, 120 hr): remained unchanged | total p65 levels ([2]; 10 nM, 24, 72, 120 hr): relatively unchanged | total levels of NF-κB proteins p50, p105, IKBa ([2]; FIG. 36 left panel): unchanged | Bcl2 family proteins Bcl2, Mcl1, Bax ([2]; FIG. 36 right panel): unchanged | direct killing of K562 cells by NK cells (K562 cells): not adversely affected | IFNgamma release of CD4+ T cells (IFNgamma; 10 nM, LCL pretreated with BZLF1 (FIG. 43)): not adversely affected | IFN production of immune effector subsets against irradiated autologous EBV+ LCL (DC9) (IFNgamma; low concentrations (2-10 nM) (FIG. 18)): not abrogated | concentration attainable in vivo [3]: 10 nM
